Experimental data taken from patent publication US9012493B2, “1-heterodiene derivative and pest control agent” (Nippon Soda Co., Ltd., priority 2009, dated 2015).

Tests used:
Format in all cases: in vivo
[1] = system: Rice Armyworm (Mythimna Separata); experiment: Efficacy test against rice armyworm, corn leaf dip; conditions: 125 ppm, emulsifiable concentrate diluted with water, corn leaves immersed, second instar larvae, after 5 days, 25° C.
Method: (§1) Test Examples of the pest control agent thus obtained according to the present invention are shown below. In respective Test Examples, the insecticidal rate (%) was determined by the following calculation equation. Insecticidal rate (%)=(number of dead pests/number of released pests)×100
The emulsifiable concentrate obtained according to Formulation of Formulation Example 2 was diluted with water so as to control the concentration of the compound to 125 ppm. Leaves of corn were immersed in this diluted solution for 30 seconds and then air-dried. The leaves were put in a petri dish on which a filter paper is laid, and then five second instar larvae of rice armyworm were inoculated. After covering the petri dish with a glass lid, the petri dish was placed in a temperature-controlled room at a temperature of 25° C. and a humidity of 65%. After 5 days, life and death were examined and the insecticidal rate was determined. The test was repeated twice.

[2] = system: Sweetpotato Whitefly (Bemisia Tabaci); experiment: Efficacy test against sweetpotato whitefly, sprayed tomato leaf; conditions: 125 ppm, emulsifiable concentrate diluted with water, adults (type B), after 2 days, 25° C.
Method: as §1
The emulsifiable concentrate obtained according to Formulation of Formulation Example 2 was diluted with water so as to control the concentration of the compound to 125 ppm. The diluted solution was sprayed over a tomato leaf obtained by cutting and then air-dried. Using absorbent cotton, the leaf was fixed to a flask so that a front surface of the leaf faces upward. Seven pairs of adults of sweetpotato whitefly (type B) were inoculated in this container, and the container was placed in a temperature-controlled room at a temperature of 25° C. and a humidity of 65%. After 2 days, life and death were examined and the insecticidal rate was determined. The test was repeated twice.

[3] = system: Cotton Aphid (Aphis Gossypii); experiment: Efficacy test against cotton aphid, spray on cucumber plant; conditions: 125 ppm, emulsifiable concentrate diluted with water, sprayed over cucumber plant with nymphs, after 5 days, 25° C.
Method: as §1
The emulsifiable concentrate obtained according to Formulation of Formulation Example 2 was diluted with water so as to control the concentration of the compound to 125 ppm. Adults of cotton aphids were inoculated to a cucumber plant (approximately 10 days after sprouting) sown in a 3 sun/size pot (9 cm). After 1 day, adult aphids were removed and the diluted solution was sprayed over the cucumber plant on which delivered nymphs are parasitic. The pot was placed in a temperature-controlled room at a temperature of 25° C. and a humidity of 65%. After 5 days, life and death were examined and the insecticidal rate was determined. The test was repeated twice.

SMILES	insecticidal rate [1] [%]	insecticidal rate [2] [%]	insecticidal rate [3] [%]
C=C1SC(=Nc2ccc(C)cc2)C(=CSc2ccc3ccccc3c2)CC1(C)C (mixture of isomers) [Compound 2-88]	100	100	–
C=C1SC(=Nc2ccc(C)cc2)C(=CSc2ccc([N+](=O)[O-])cc2)CC1(C)C (mixture of isomers) [Compound 6-4]	100	–	–
C=C1SC(=Nc2ccc(C)cc2)C(=CSC2CCCCC2)CC1(C)C (mixture of isomers) [Compound 6-5]	100	100	–
C=C1SC(=Nc2ccc(C)cc2)C(=CSC2CCc3ccccc32)CC1(C)C (racemic) [Compound 2-115]	100	100	–
C=C1SC(=Nc2ccc(OC)cc2)C(=CSc2ccccc2)CC1(C)CCC=C(C)C (racemic) [Compound 2-130]	100	100	–
CC(C)=C1CC(=CSc2ccccc2)C(=Nc2ccc(Cl)cc2)S1 [Compound 1-2]	100	100	–
CC(C)=C1CC(=CSc2ccccc2)C(=[NH+]c2ccc(Cl)cc2)S1.F[B-](F)(F)F [Compound 1-3]	100	100	–
C=C1CCC(=CSc2ccccc2)C(=Nc2ccc(Cl)cc2)S1 [Compound 2-1]	100	100	–
C=C1CCC(=CSc2ccccc2)C(=Nc2ccc(C(F)(F)F)cc2)S1 [Compound 2-5]	100	100	–
C=C1CCC(=CSc2ccccn2)C(=Nc2ccc(C)cc2)S1 [Compound 2-7]	–	–	100
C=C1CCC(=CSc2ccccc2)C(=Nc2ccc(OC)cc2)S1 [Compound 2-8]	100	100	100
C=C1CCC(=CSc2ccc(F)cc2)C(=Nc2ccc(OC)cc2)S1 [Compound 2-9]	100	100	100
C=C1SC(=Nc2ccc(OC)cc2)C(=CSc2ccccc2)CC1(C)C [Compound 2-16]	100	100	100
C=C1SC(=Nc2ccc(C)cc2)C(=CSc2ccc(OC)cc2)CC1(C)C [Compound 2-18]	100	100	100
C=C1SC(=Nc2ccc(C)cc2)C(=CSc2ccccc2OC)CC1(C)C [Compound 2-19]	100	100	100
C=C1SC(=Nc2ccc(C)cc2)C(=CSc2ccc(NC(C)=O)cc2)CC1(C)C [Compound 2-21]	100	–	–
COc1ccc(N=C2SC(=C(C)C)CCC2=CSc2ccc(F)cc2)cc1 [Compound 2-22]	100	100	100
COc1ccc(N=C2SC(=C(C)C)CCC2=CSc2ccccc2)cc1 [Compound 2-23]	–	–	100
C=C1SC(=Nc2ccc(C)cc2)C(=CSc2ccc(F)cc2)CC12CCCCC2 [Compound 2-24]	100	100	–
C=C1SC(=Nc2cccc(OC)c2)C(=CSc2ccccc2)CC1(C)C [Compound 2-25]	100	100	100
C=C1SC(=Nc2ccc(C)cc2Cl)C(=CSc2ccccc2)CC1(C)C [Compound 2-26]	100	100	100
C=C1SC(=Nc2cccc(Cl)c2)C(=CSc2ccccc2)CC1(C)C [Compound 2-29]	100	100	100
C=C1SC(=Nc2ccc(OC)cc2OC)C(=CSc2ccccc2)CC1(C)C [Compound 2-30]	100	–	100
C=C1SC(=Nc2c(F)cccc2F)C(=CSc2ccccc2)CC1(C)C [Compound 2-31]	100	100	100
C=C1SC(=Nc2ccc(OC)cc2F)C(=CSc2ccccc2)CC1(C)C [Compound 2-33]	100	100	100
C=C1SC(=Nc2cccc(Cl)c2Cl)C(=CSc2ccccc2)CC1(C)C [Compound 2-37]	100	100	100
